Source: patent US20260365696A1, “INHIBITORS OF PTP1B / NCK1 INTERACTION AND METHODS OF MAKING AND USING SAME” (Radella Pharmaceuticals LLC, priority 2023, published 2026)
pKd: −log10 of the molar value. Residues, ends and D or L forms follow the SMILES beside them.

Each compound was assayed against T1, SH3-2 domain of NCK1 (Homo sapiens, UniProt P16333) (assay: Isothermal titration calorimetry (ITC) binding to NCK1 SH3-2 domain). Conditions: Alanine scanning of the MD17 15-mer peptide; ITC, 25 °C, pH 8.0.
T1 construct: To amplify the NCK1 SH3-2 domain, the primers; 10xHis tag with TEV site (vector pSF-OXB20-NH2-10HIS) (N, cleaved yes); made in house; host or cells: E. coli C43(DE3)
Excerpt: Human PTP1B cDNA (NM_002827) and human NCK1 cDNA (NM 006153) were obtained (Origene, MD, USA). PTP1B Primers were designed to amplify the ORFs with added homology to the cut vector (EcoRI-digested pSF-OXB20-NH2-10HIS) in the forward primer sequence. To amplify full-length PTP1B, the primers ptp1b_FL_fwd ([…]) (SEQ ID NO: 159) and ptp1b_FL_rev ([…]) (SEQ ID NO: 160) were used. To amplify truncations of PTP1B, the following primer pairs were used: ptp1b_FL-Fwd and one of Ptplb_323stop_rev (gtgcaggaggagttcgaatt[…]) (SEQ ID NO: 161), ptp1b_344stop_rev ([…]) (SEQ ID NO: 162) or ptp1b_278stop_rev([…]) (SEQ ID NO: 163). To amplify the NCK1 SH3-2 domain, the primers ncklsh32_fwd ([…]) (SEQ ID NO: 164) and ncklsh32_rev ([…]) (SEQ ID NO: 165) were used. The amplified fragments were purified using a DNA clean-up kit according to manufacturer's instructions (QIAquick PCR purification kit, Qiagen).
To produce and purify fusion proteins, a culture was inoculated with 1% of overnight-cultured inoculum. Protein expression was carried out under the conditions described above, scaled up as necessary. Cells expressing the recombinant proteins were harvested in 50 mL tubes by centrifugation and stored at −80 °C. Cells containing the expressed gene product were thawed over ice and resuspended in Extraction buffer (10 mM Tris, pH 7.4 or 10 mM Sodium Phosphate, pH 8.0; 300 mM NaCl, 1 mM DTT or TCEP; 0-10% glycerol and 1 μg lysozyme) and sonicated over ice (4 °C) for 3 min total using pulses of 5 s with 15 s intervals, using a wide probe at 15 amplitude microns (Soniprep 150, MSE). Insoluble material was removed from the lysate by centrifugation at 20K rpm for 20-60 min at 4 °C. Supernatant was filtered through a 0.22 μm PVDF filter membrane and applied to 1-2 5 mL HisTrap FF Crude (Cytiva) prepacked Ni columns and connected to an AKTA explorer. After thorough washing with binding buffer (10 mM Tris, pH 7.4 or 10 mM Sodium Phosphate, pH 8.0; 300 mM NaCl; 1 mM DTT or TCEP and 25 mM Imidazole), protein was eluted using elution buffer (10 mM Tris, pH 7.4 or 10 mM Sodium Phosphate, pH 8.0; 150-300 mM NaCl; 1 mM DTT or TCEP and 250 mM Imidazole). Fractions containing protein of interest were confirmed by SDS PAGE. Protein was diluted with GF buffer (10 mM Tris, pH 7.4 or 10 mM Sodium Phosphate, pH 8.0; 150-300 mM NaCl) and subjected to TEV protease treatment overnight at 4-10 °C. Following proteolytic digestion, HIS-tag and TEV protease were removed by filtration through a clean 5 mL HisTrap FF Crude (Cytiva) prepacked Ni column. Protein was concentrated on a PES ultrafiltration device by centrifugation at 4000 rpm at 4 °C, and protein was polished via a HiPrep S-100 26/60 (Cytiva) using GF buffer (as described above). Purified proteins were concentrated using ultrafiltration, and protein concentration was determined using ultraviolet-visible spectroscopy. The integrity and identity of all proteins were verified by mass spectrographic analysis.
Isothermal titration calorimetry (ITC) was used to determine binding affinities for peptides against the SH3-2 domain of NCK1. Experiments were conducted at 25 °C using either a MicroCal iTC200 or MicroCal PEAQ-ITC calorimeter. The buffer used for all ITC experiments was 10 mM sodium [COMPOUND LEFT OUT] mM sodium chloride (pH=8.0). A series of peptides (concentration 3-7.5 mM) were titrated in to NCK1 SH3-2 domain (concentration 0.125-0.3 mM) using the following conditions: one injection of 0.2 μL followed by 19 injections of 2 μL, 120-150 seconds spacing between injections, at 25 °C. The data were fit using analysis software provided by the manufacturer and affinity values were calculated. The best fitting occurred when the number of sites was between 0.8 and 1.2. The experiments were repeated twice for a total of three times, and the average binding affinity for each peptide was generated. […]

| pKd | Compound |
| --- | --- |
| < 3.00 | Ac-PPPEHIPPPPRPAKR-NH2 [MH005] |
| ≥ 3.52 | Ac-PPPAHIPPPPRPPKR-NH2 [MSJ015] |
| ≥ 3.52 | Ac-PPPEHIAPPPRPPKR-NH2 [MSJ018] |
| ≥ 3.52 | Ac-PPAEHIPPPPRPPKR-NH2 [MSJ014] |
| ≥ 3.52 | Ac-PAPEHIPPPPRPPKR-NH2 [MSJ013] |
| ≥ 3.52 | Ac-PPPEHIPPPPRAPKR-NH2 [MH004] |
| ≥ 3.52 | Ac-APPEHIPPPPRPPKR-NH2 [MSJ012] |

Same assay, conditions: Alanine scanning of the MD20 6-mer peptide; ITC, 25 °C, pH 8.0

| pKd | Compound |
| --- | --- |
| < 3.00 | Ac-PRAPKR-NH2 [MH010, Ac-PRAPKR-NH2] |
| ≥ 3.52 | Ac-PAPPKR-NH2 [MH009, Ac-PAPPKR-NH2] |
| 3.22 to 3.52 | Ac-PRPPAR-NH2 [MH012, Ac-PRPPAR-NH2] |

Same assay, conditions: ITC

| binding to NCK1 SH3-2 domain (in words) | Compound |
| --- | --- |
| abolished binding | Ac-PPRPPK-NH2 [MH035, Ac-PPRPPK-NH2] |
| abolished binding | Ac-PPPRPPK-NH2 [MH041, Ac-PPPRPPK-NH2] |

Same assay, conditions: Modified MD18/MD20 peptides; ITC, 25 °C, pH 8.0

| pKd | Compound |
| --- | --- |
| ≥ 3.52 | CCNC(=O)[C@H](CCCNC(=N)N)NC(=O)[C@H](CCCCN)NC(=O)[C@@H]1CCCN1C(=O)[C@@H]1CCCN1C(=O)[C@H](CCCNC(=N)N)NC(=O)[C@@H]1CCCN1C(C)=O [MH045, Ac-PRPPKR-NHEt] (Ac-PRPPKR-NHEt) |
| ≥ 3.52 | Ac-APRPPKR-NH2 [MH047, Ac-APRPPKR-NH2] |
| < 3.00 | Ac-PPRPPKK-NH2 [MH076, Ac-PPRPPKK-NH2] |

Same assay, conditions: N- or C-terminal extensions; ITC, 25 °C, pH 8.0; 30-mers tested one to three times

| pKd | Compound |
| --- | --- |
| ≥ 3.52 | Ac-PPPEHIPPPPRPPKRILE-NH2 [MH077] |
| ≥ 3.52 | Ac-PPRPPKRILE-NH2 [MH065] |
| ≥ 3.52 | Ac-PPPEHIPPPPRPPKRILEPHNGKCR-NH2 [MH134] |

Same assay, conditions: Peptide truncation analysis; ITC, 25 °C, pH 8.0

| Compound | pKd |
| --- | --- |
| Ac-PPEHIPPPPRPPKR-NH2 [MH030] | ≥ 3.52 |
| CC(=O)N1CCC[C@H]1C(=O)N[C@@H](CCCCN)C(=O)N[C@@H](CCCNC(=N)N)C(N)=O [MH014, Ac-PKR-NH2] (Ac-Pro-Lys-Arg-NH2) | < 3.00 |
| CC(=O)N[C@@H](CCCNC(=N)N)C(=O)N1CCC[C@H]1C(=O)N1CCC[C@H]1C(=O)N[C@@H](CCCCN)C(N)=O [MH016, Ac-RPPK-NH2] (Ac-RPPK-NH2) | < 3.00 |

More lines, now with the values ahead:

| pKd | Compound |
| --- | --- |
| < 3.00 | CC(=O)N1CCC[C@H]1C(=O)N[C@@H](CCCNC(=N)N)C(=O)N1CCC[C@H]1C(=O)N1CCC[C@H]1C(N)=O [MH021, Ac-PRPP-NH2] (Ac-PRPP-NH2) |
| < 3.00 | CC(=O)N[C@@H](CCCNC(=N)N)C(=O)N1CCC[C@H]1C(=O)N1CCC[C@H]1C(N)=O [MH020, Ac-RPP-NH2] (Ac-Arg-Pro-Pro-NH2) |
| < 3.00 | CC(=O)N1CCC[C@H]1C(=O)N1CCC[C@H]1C(=O)N[C@@H](CCCCN)C(=O)N[C@@H](CCCNC(=N)N)C(N)=O [MH017, Ac-PPKR-NH2] (Ac-PPKR-NH2) |
| ≥ 3.52 | Ac-PEHIPPPPRPPKR-NH2 [MH029] |
| ≥ 3.52 | Ac-APRPPKR-NH2 [MH047, Ac-APRPPKR-NH2] |
| ≥ 3.52 | Ac-HIPPPPRPPKR-NH2 [MH027] |

Same assay, conditions: Sliding window peptide analysis; ITC, 25 °C, pH 8.0

| Compound | pKd |
| --- | --- |
| Ac-EHIPPP-NH2 [MH039, Ac-EHIPPP-NH2] | < 3.00 |
| Ac-PPPRPPK-NH2 [MH041, Ac-PPPRPPK-NH2] | < 3.00 |

Other lines, results leading:

| pKd | Compound |
| --- | --- |
| < 3.00 | Ac-PPRPPK-NH2 [MH035, Ac-PPRPPK-NH2] |
| < 3.00 | Ac-IPPPPR-NH2 [MH038, Ac-IPPPPR-NH2] |

Same assay, conditions: exemplary control peptides; ITC, 25 °C, pH 8.0

| pKd | Compound |
| --- | --- |
| < 3.00 | Ac-PAVPPRP-NH2 [MH082, Ac-PAVPPRP-NH2, reference compound] |
| < 3.00 | Ac-SPAKGEPSLPEK-NH2 [MH133, reference compound] |

Same assay, conditions: substitutions at position 1 of MD18; ITC, 25 °C, pH 8.0

| pKd | Compound |
| --- | --- |
| ≥ 3.52 | Ac-KPRPPKR-NH2 [MH103, Ac-KPRPPKR-NH2] |
| ≥ 3.52 | Ac-TPRPPKR-NH2 [MH113, Ac-TPRPPKR-NH2] |
| ≥ 3.52 | Ac-VPRPPKR-NH2 [MH123, Ac-VPRPPKR-NH2] |
| ≥ 3.52 | Ac-WPRPPKR-NH2 [MH117, Ac-WPRPPKR-NH2] |
| ≥ 3.52 | Ac-MPRPPKR-NH2 [MH109, Ac-MPRPPKR-NH2] |
| 3.22 to 3.52 | Ac-LPRPPKR-NH2 [MH099, Ac-LPRPPKR-NH2] |
| ≥ 3.52 | Ac-APRPPKR-NH2 [MH047, Ac-APRPPKR-NH2] |
